This passage reports IC50 results from patent US11339136B2 (Novartis AG, priority 2016, dated 2022).

Broadly, the IC50 is the concentration needed to halve the response being measured. The low end stands for greater potency, the high end for weaker potency.

T1 sequence (Q96P20 whole entry): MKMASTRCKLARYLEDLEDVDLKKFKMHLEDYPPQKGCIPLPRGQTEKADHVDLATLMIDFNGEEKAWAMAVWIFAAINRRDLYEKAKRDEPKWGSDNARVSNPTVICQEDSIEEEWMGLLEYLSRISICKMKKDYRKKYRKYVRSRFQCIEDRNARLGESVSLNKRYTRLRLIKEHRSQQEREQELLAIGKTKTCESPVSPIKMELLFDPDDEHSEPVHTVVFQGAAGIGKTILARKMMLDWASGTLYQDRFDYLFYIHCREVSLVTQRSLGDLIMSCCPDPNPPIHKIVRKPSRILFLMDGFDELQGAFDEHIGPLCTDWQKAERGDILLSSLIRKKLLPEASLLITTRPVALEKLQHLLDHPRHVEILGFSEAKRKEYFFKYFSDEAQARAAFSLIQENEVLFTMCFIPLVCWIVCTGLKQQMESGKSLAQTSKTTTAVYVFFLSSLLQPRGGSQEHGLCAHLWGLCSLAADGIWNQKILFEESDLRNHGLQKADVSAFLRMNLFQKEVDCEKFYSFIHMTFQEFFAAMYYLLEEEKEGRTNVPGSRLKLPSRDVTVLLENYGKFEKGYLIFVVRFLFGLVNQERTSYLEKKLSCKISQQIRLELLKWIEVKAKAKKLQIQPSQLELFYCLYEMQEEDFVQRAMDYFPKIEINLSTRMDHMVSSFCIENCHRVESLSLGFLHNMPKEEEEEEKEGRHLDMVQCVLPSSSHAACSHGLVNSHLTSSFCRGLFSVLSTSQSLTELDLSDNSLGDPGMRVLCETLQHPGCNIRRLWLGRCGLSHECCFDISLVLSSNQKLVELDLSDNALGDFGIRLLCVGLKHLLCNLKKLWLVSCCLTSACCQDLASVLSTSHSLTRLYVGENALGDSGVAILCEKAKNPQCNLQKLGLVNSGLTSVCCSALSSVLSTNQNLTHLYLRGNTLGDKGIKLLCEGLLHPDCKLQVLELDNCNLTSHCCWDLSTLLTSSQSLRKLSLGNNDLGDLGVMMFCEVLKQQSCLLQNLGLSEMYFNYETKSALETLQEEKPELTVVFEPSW

One test has as its target T1, hNLRP3 (Homo sapiens, UniProt Q96P20).
T1 construct: THP-1 cells were purchased from the American Type Culture Collection; host or cells: THP-1 cells, PMA-differentiated
Put plainly: IL-1β production in PMA-differentiated THP-1 cells stimulated with gramicidin. It counts as cell-based. The note with it: gramicidin 5 μM, IL-1β in supernatant, Table 1. How it is done: Bioassay: IL-1β Production in PMA-Differentiated THP-1 Cells Stimulated with Gramicidin. Procedure 1:
Cell culture—THP-1 cells were purchased from the American Type Culture Collection and sub-cultured according to instructions from the supplier. Prior to experiments, cells were cultured in RPMI 1640 containing 10% heat inactivated FBS, penicillin (100 units/ml) and streptomycin (100 μg/ml), and maintained in log phase prior to experimental setup. Prior to the experiment THP-1 were treated with PMA (Phorbol 12-myristate 13-acetate) (10 μg/ml) for 24 hours. The day of the experiment the media was removed and attaching cells were treated with trypsin for 2 minutes, cells were then collected, washed with PBS (phosphate buffer saline), spin down, resuspended in 2% heat inactivated FBS with RPMI at a concentration of 1×10^6 cells/ml, and 100 ul was plated in a 96 well plate. Cells were incubated with compounds for 1 hours and then stimulated with Gramicidin (5 μM) (Enzo) for 2 hours. Cell free supernatant was collected and the production of IL-1β was evaluated by ELISA. Compounds were dissolved in dimethyl sulfoxide (DMSO) and added to the culture medium to achieve desired concentration (e.g. 100, 30, 10, 3, 1, 0.3 or 0.1 μM). A vehicle only control was run concurrently with each experiment. Final DMSO concentration was 1%.
THP-1 cells were purchased from the American Type Culture Collection and sub-cultured according to instructions from the supplier. Prior to experiments, cells were cultured in complete RPMI 1640 (containing 10% heat inactivated FBS, penicillin (100 units/ml) and streptomycin (100 μg/ml)), and maintained in log phase prior to experimental setup. Prior to the experiment THP-1 were treated with PMA (Phorbol 12-myristate 13-acetate) (20 ng/ml) for 16-18 hours. On the day of the experiment the media was removed and adherent cells were detached with trypsin for 5 minutes. Cells were then harvested, washed with complete RPMI 1640, spun down, resuspended in RPMI 1640 (containing 2% heat inactivated FBS, penicillin (100 units/ml) and streptomycin (100 μg/ml). The cells were plated in a 384-well plate at a density of 50,000 cells/well (final assay volume 50 μl). Compounds were dissolved in dimethyl sulfoxide (DMSO) and added to the culture medium to achieve desired concentration (e.g. 100, 33, 11, 3.7, 1.2, 0.41, 0.14, 0.046, 0.015, 0.0051, 0.0017 μM). Cells were incubated with compounds for 1 hour and then stimulated with gramicidin (5 μM) (Enzo) for 2 hours. Cell free supernatant was collected and the production of IL-1β was evaluated by HTRF (cisbio). A vehicle only control was run concurrently with each experiment. Final DMSO concentration was 0.38%.
On to `CC(C)c1cc(F)cc(C(C)C)c1NC(=O)NS(=O)(=O)c1cc(C(C)(C)O)co1` [Compound 115, N-(4-fluoro-2,6-diisopropylphenyl-carbamoyl)-4-(2-hydroxypropan-2-yl)furan-2-sulfonamide], for which the IC50 was < 1000 nM.

Still in this test, the particulars now being: gramicidin 5 μM, IL-1β in supernatant, Table 2.
Regarding `CC(C)c1cccc(C(C)C)c1NC(=O)NS(=O)(=O)c1ncc(C(C)(C)O)s1` [Compound 227, N-(2,6-diisopropylphenyl-carbamoyl)-5-(2-hydroxypropan-2-yl)thiazole-2-sulfonamide], the IC50 is < 1000 nM.

As for `CC(C)c1cc(Cl)cc(C(C)C)c1NC(=O)NS(=O)(=O)c1ccc(C2(O)CC2)s1` [Compound 196, N-(4-chloro-2,6-diisopropylphenylcarbamoyl)-5-(1-hydroxycyclopropyl) thiophene-2-sulfonamide], the IC50 was < 1000 nM. Consider `CC(C)(O)c1csc(S(=O)(=O)NC(=O)Nc2cccc3c2CCC3)c1` [Compound 191, N-(2,3-dihydro-1H-inden-4-ylcarbamoyl)-4-(2-hydroxypropan-2-yl) thiophene-2-sulfonamide], for which the IC50 is 1000 to 5000 nM. Take `CC(C)c1cc(C#N)cc(C(C)C)c1NC(=O)NS(=O)(=O)c1cc(C2(O)CC2)co1` [Compound 235, N-(4-cyano-2,6-diisopropylphenyl-carbamoyl)-4-(1-hydroxycyclo-propyl)furan-2-sulfonamide]: the 50% inhibitory concentration (IC50) is < 1000 nM. In the case of `CC(C)(O)c1ncsc1S(=O)(=O)NC(=O)Nc1c2c(cc3c1CCC3)CCC2` [Compound 266], the IC50 fell in the range of 1000 to 5000 nM. Same read-out and setting: next, `CC(C)c1ccc(Cl)c(C(C)C)c1NC(=O)NS(=O)(=O)c1cnc(C(C)(C)O)s1` [Compound 271]: 1000 to 5000 nM. Regarding `Cc1sc(S(=O)(=O)NC(=O)Nc2c(C(C)C)cc(Cl)cc2C(C)C)cc1C(C)(C)O` [Compound 156, N-(4-chloro-2,6-diisopropylphenyl-carbamoyl)-4-(2-hydroxypropan-2-yl)-5-methylthiophene-2-sulfonamide], the IC50 was < 1000 nM. In turn, `CC(C)(O)c1ncsc1S(=O)(=O)NC(=O)Nc1c2c(c(Cl)c3c1CCC3)CCC2` [Compound 273] came in with an IC50 of 5000 to 15000 nM. Compound `Cc1cc(C(C)C)c(NC(=O)NS(=O)(=O)c2cnc(C(C)(C)O)s2)c(C(C)C)c1` [Compound 272] displayed a concentration for half-maximal inhibition (IC50) of 1000 to 5000 nM.

For `Cc1nc(S(=O)(=O)NC(=O)Nc2c(C(C)C)ccc(F)c2C(C)C)sc1C(C)(C)O` [Compound 150, N-(3-fluoro-2,6-diisopropylphenylcarbamoyl)-5-(2-hydroxypropan-2-yl)-4-methylthiazole-2-sulfonamide], the IC50 was < 1000 nM. Still for that read-out and setting: next, `O=C(Nc1c2c(cc3c1CCC3)CCC2)NS(=O)(=O)c1ncc(C2(O)CCCC2)s1` [Compound 183]: < 1000 nM; `CC(C)c1cc(F)cc(C(C)C)c1NC(=O)NS(=O)(=O)c1cc(C2(O)CC2)co1` [Compound 205, N-(4-fluoro-2,6-diisopropylphenyl-carbamoyl)-4-(1-hydroxycyclo-propyl)furan-2-sulfonamide]: < 1000 nM; `CC(C)c1cc(C#N)cc(C(C)C)c1NC(=O)NS(=O)(=O)c1cnc(C(C)(C)O)s1` [Compound 267]: 1000 to 5000 nM. In the case of `Cc1sc(S(=O)(=O)NC(=O)Nc2c(C(C)C)cc(C#N)cc2C(C)C)cc1C(C)(C)O` [Compound 162, N-(4-cyano-2,6-diisopropylphenyl-carbamoyl)-4-(2-hydroxypropan-2-yl)-5-methylthiophene-2-sulfonamide], the IC50 was < 1000 nM. For the compound `CC(C)c1ccc(F)c(C(C)C)c1NC(=O)NS(=O)(=O)c1nc(C(C)(C)O)cs1` [Compound 145, N-(3-fluoro-2,6-diisopropylphenylcarbamoyl)-4-(2-hydroxypropan-2-yl)thiazole-2-sulfonamide], the IC50 was in the range of 1000 to 5000 nM. `CC(C)c1cccc(C(C)C)c1NC(=O)NS(=O)(=O)c1ccc(C(C)(C)O)s1` [Compound 188, N-(2,6-diisopropylphenylcarbamoyl)-5-(2-hydroxypropan-2-yl) thiophene-2-sulfonamide] came in with an IC50 of 1000 to 5000 nM. Take `CC(C)c1cc(F)cc(C(C)C)c1NC(=O)NS(=O)(=O)c1cnc(C(C)(C)O)s1` [Compound 269]: the IC50 lay within 1000 to 5000 nM.

With `CC(C)(O)c1csc(S(=O)(=O)NC(=O)Nc2c3c(c(C#N)c4c2CCC4)CCC3)c1` [Compound 224, N-(8-cyano-1,2,3,5,6,7-hexahydros-indacen-4-ylcarbamoyl)-4-(2-hydroxypropan-2-yl)thiophene-2-sulfonamide], the IC50 is < 1000 nM. For `CC(C)c1ccc(Cl)c(C(C)C)c1NC(=O)NS(=O)(=O)c1cc(C(C)(C)O)c(Cl)s1` [Compound 252, 5-chloro-N-(3-chloro-2,6-diisopropylphenylcarbamoyl)-4-(2-hydroxypropan-2-yl)thiophene-2-sulfonamide], the IC50 fell in the range of 5000 to 15000 nM. On to `CC(C)c1cccc(C(C)C)c1NC(=O)NS(=O)(=O)c1cnc(C(C)(C)O)s1` [Compound 270], for which the half-inhibitory concentration (IC50) lay within 1000 to 5000 nM.

As for `CC(C)c1cccc(C(C)C)c1NC(=O)NS(=O)(=O)c1cc(C2(O)CC2)cs1` [Compound 230, N-(2,6-diisopropylphenyl-carbamoyl)-4-(1-hydroxycyclo-propyl)thiophene-2-sulfonamide], the IC50 is < 1000 nM.

`CCc1cccc(CC)c1NC(=O)NS(=O)(=O)c1ncc(C(C)(C)O)s1` [Compound 172, N-(2,6-diethylphenylcarbamoyl)-5-(2-hydroxypropan-2-yl)thiazole-2-sulfonamide] yielded an IC50 of 1000 to 5000 nM. `CC(C)c1ccc2c(c1NC(=O)NS(=O)(=O)c1cc(C(C)(C)O)cs1)CCC2` [Compound 175, 4-(2-hydroxypropan-2-yl)-N-(5-isopropyl-2,3-dihydro-1H-inden-4-ylcarbamoyl) thiophene-2-sulfonamide]: the IC50 was in the range of 15000 to 35000 nM. `CC(C)c1cc(C#N)cc(C(C)C)c1NC(=O)NS(=O)(=O)c1nc(C(C)(C)O)cs1` [Compound 146, N-(4-cyano-2,6-diisopropylphenylcarbamoyl)-4-(2-hydroxypropan-2-yl)thiazole-2-sulfonamide] showed an IC50 of 1000 to 5000 nM. In the case of `CC(C)(O)c1cc(S(=O)(=O)NC(=O)Nc2c3c(cc4c2CCC4)CCC3)oc1Cl` [Compound 255, 5-chloro-N-(1,2,3,5,6,7-hexahydros-indacen-4-ylcarbamoyl)-4-(2-hydroxypropan-2-yl)furan-2-sulfonamide], the IC50 was < 1000 nM.

`CC(C)c1ccc(F)c(C(C)C)c1NC(=O)NS(=O)(=O)c1cc(C2(O)CC2)co1` [Compound 212]: the IC50 was < 1000 nM.

Take `O=C(Nc1c2c(cc3c1CCC3)CCC2)NS(=O)(=O)c1cc(C2(O)CC2)co1` [Compound 247, 1-(1,2,3,5,6,7-hexahydro-s-indacen-4-yl)-3-[4-(1-hydroxycyclopropyl)furan-2-sulfonyl]urea]: the half-maximal inhibitory concentration (IC50) was < 1000 nM. As to `CC(C)c1cc(F)cc(C(C)C)c1NC(=O)NS(=O)(=O)c1ccc(C(C)(C)O)s1` [Compound 257], the IC50 is < 1000 nM. `CC(C)c1cc(F)cc(C(C)C)c1NC(=O)NS(=O)(=O)c1cc(C(C)(C)O)cs1` [Compound 211, N-(4-fluoro-2,6-diisopropylphenyl-carbamoyl)-4-(2-hydroxypropan-2-yl)thiophene-2-sulfonamide]: the IC50 is < 1000 nM. On to `CC(C)c1cc(Cl)cc(C(C)C)c1NC(=O)NS(=O)(=O)c1cc(C(C)(C)O)c(Cl)s1` [Compound 254, 5-chloro-N-(4-chloro-2,6-diisopropylphenyl-carbamoyl)-4-(2-hydroxypropan-2-yl)thiophene-2-sulfonamide], for which the IC50 was < 1000 nM.

`CC(C)c1cc(Cl)cc(C(C)C)c1NC(=O)NS(=O)(=O)c1cc(C2(O)CC2)co1` [Compound 236, N-(4-chloro-2,6-diisopropylphenyl-carbamoyl)-4-(1-hydroxycyclo-propyl)furan-2-sulfonamide]: the IC50 is < 1000 nM.

Take `N#Cc1c2c(c(NC(=O)NS(=O)(=O)c3cc(C4(O)CC4)cs3)c3c1CCC3)CCC2` [Compound 223, N-(8-cyano-1,2,3,5,6,7-hexahydros-indacen-4-ylcarbamoyl)-4-(1-hydroxycyclo-propyl)thiophene-2-sulfonamide]: the 50% inhibitory concentration (IC50) was < 1000 nM. The same measure, in the same setting: the figure for `CC(C)c1cc(Cl)cc(C(C)C)c1NC(=O)NS(=O)(=O)c1nc(C(C)(C)O)cs1` [Compound 147, N-(4-chloro-2,6-diisopropylphenylcarbamoyl)-4-(2-hydroxypropan-2-yl)thiazole-2-sulfonamide] is 1000 to 5000 nM.
